Legend:
[1] = target: T1, FGF14:Nav1.6 C-tail complex (Homo sapiens, UniProt Q92915+Q9UQD0); assay: Split-luciferase complementation assay (LCA) in Clone V double stable HEK293 cells; assay type: cell-based; conditions: for Split Luciferase Assay Z-score Set 1 / Split Luciferase Assay % Lum Set 1 / Split Luciferase Assay Z-score Set 2 / Split Luciferase Assay %Lum Set 2: CC_NCI screening; for Split Luciferase Assay Z-score Set 1 / Split Luciferase Assay % Lum Set 1: biological replicate Set 1; for Split Luciferase Assay Z-score Set 1 / Split Luciferase Assay Z-score Set 2: normalized to on-plate 0.3% DMSO controls; for Split Luciferase Assay % Lum Set 1 / Split Luciferase Assay %Lum Set 2: normalized to on-plate 0.3% DMSO controls (n=16 per plate); for Split Luciferase Assay %Lum Avg: average of Set 1 and Set 2, normalized to 0.3% DMSO controls; for Split Luciferase Assay Z-score Set 2 / Split Luciferase Assay %Lum Set 2: biological replicate Set 2
T1 construct: polymerase chain reaction (PCR) amplification of the FGF14 open reading frame (nt 1–855); C-terminal fragment of Nav1.6 (amino acids 1763–1976) fused with CD4ΔC-tail (amino acids 1–395); expressed in transfected cells

Clone V cells = assay: CellTiter Blue (CTB) cell viability counter-screen; conditions: CC_NCI screening; normalized to on-plate 0.3% DMSO controls
[2] = target: full-length P. pyralis luciferase (Photinus pyralis, UniProt P08659, K549A/L550V/N119G/N50D/S548I); assay type: cell-based; conditions: CC_NCI screening; normalized to on-plate 0.3% DMSO controls
in vitro = conditions: human, Clone V cells

T1 sequence (Q92915 1-252 isoform Q92915-2): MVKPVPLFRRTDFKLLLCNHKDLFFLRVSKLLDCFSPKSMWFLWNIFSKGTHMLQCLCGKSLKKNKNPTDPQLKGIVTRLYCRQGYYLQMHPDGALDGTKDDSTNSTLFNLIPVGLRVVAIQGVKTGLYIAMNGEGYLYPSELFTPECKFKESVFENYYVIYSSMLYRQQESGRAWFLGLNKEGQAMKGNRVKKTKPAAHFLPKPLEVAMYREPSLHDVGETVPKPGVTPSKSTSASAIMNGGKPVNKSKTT
T1 sequence (Q9UQD0 1763-1976 limits assumed): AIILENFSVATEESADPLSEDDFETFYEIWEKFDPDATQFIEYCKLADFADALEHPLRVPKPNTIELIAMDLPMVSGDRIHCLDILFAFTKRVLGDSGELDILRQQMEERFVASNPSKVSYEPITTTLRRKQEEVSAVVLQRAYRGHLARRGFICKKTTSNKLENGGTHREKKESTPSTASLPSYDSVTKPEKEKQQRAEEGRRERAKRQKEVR
full-length P. pyralis luciferase, sequence (P08659 whole entry N50D/N119G/S548I/K549A/L550V, looked up): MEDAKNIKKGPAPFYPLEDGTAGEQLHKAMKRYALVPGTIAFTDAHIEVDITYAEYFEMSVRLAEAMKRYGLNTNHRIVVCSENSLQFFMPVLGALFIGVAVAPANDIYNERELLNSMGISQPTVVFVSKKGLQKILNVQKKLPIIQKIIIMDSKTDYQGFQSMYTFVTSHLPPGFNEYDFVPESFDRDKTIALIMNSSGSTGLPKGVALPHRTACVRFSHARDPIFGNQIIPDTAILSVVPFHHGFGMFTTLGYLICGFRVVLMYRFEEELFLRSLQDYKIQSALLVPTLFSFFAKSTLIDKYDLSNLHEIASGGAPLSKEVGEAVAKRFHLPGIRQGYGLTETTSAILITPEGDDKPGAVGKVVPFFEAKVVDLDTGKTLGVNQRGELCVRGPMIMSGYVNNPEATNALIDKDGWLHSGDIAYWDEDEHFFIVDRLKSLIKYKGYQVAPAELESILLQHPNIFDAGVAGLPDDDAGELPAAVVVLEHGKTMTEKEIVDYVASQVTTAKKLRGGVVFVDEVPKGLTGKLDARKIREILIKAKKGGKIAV

CS(=O)(=O)c1ccc(C2=C(c3ccccc3)C(=O)OC2)cc1 [ROFECOXIB]
Split Luciferase Assay Z-score Set 1 [1]: 1.78 | Split Luciferase Assay % Lum Set 1 [1]: 122.08% | Split Luciferase Assay %Lum Avg [1]: 87.57% | Toxicity Assay Z-score (CTB cell viability) (Clone V cells): 1.28 | Luciferase Assay % Lum (full-length luciferase counter-screen) [2]: 102.66% | Luciferase Assay Z-score (full-length luciferase counter-screen) [2]: 0.34 | viability at 16 h, 30 µM (in vitro): 109%

Nc1ccccc1NC(=O)c1ccc(CNc2nccc(-c3cccnc3)n2)cc1 [MGCD0103]
Split Luciferase Assay Z-score Set 1 [1]: -1.82 | Split Luciferase Assay % Lum Set 1 [1]: 77.51% | Split Luciferase Assay Z-score Set 2 [1]: -1.96 | Split Luciferase Assay %Lum Set 2 [1]: 75.94% | Split Luciferase Assay %Lum Avg [1]: 76.73% | Toxicity Assay Z-score (CTB cell viability) (Clone V cells): 0.52 | Luciferase Assay % Lum (full-length luciferase counter-screen) [2]: 90.12% | Luciferase Assay Z-score (full-length luciferase counter-screen) [2]: -1.27 | viability at 16 h, 30 µM (in vitro): 104%

Cc1cc(Nc2cc(N3CCN(C)CC3)nc(Sc3ccc(NC(=O)C4CC4)cc3)n2)[nH]n1 [TOZASERTIB]
Split Luciferase Assay Z-score Set 1 [1]: -1.55 | Split Luciferase Assay % Lum Set 1 [1]: 80.77% | Split Luciferase Assay Z-score Set 2 [1]: -6.02 | Split Luciferase Assay %Lum Set 2 [1]: 26.01% | Split Luciferase Assay %Lum Avg [1]: 53.39% | Toxicity Assay Z-score (CTB cell viability) (Clone V cells): 0.86 | Luciferase Assay % Lum (full-length luciferase counter-screen) [2]: 73.72% | Luciferase Assay Z-score (full-length luciferase counter-screen) [2]: -3.37 | viability at 16 h, 30 µM (in vitro): 106%

Oc1c2ccccc2c2c3c(cccc13)N=N2 [SP600125]
Split Luciferase Assay Z-score Set 1 [1]: 0.99 | Split Luciferase Assay % Lum Set 1 [1]: 112.30% | Split Luciferase Assay Z-score Set 2 [1]: -1.20 | Split Luciferase Assay %Lum Set 2 [1]: 85.31% | Split Luciferase Assay %Lum Avg [1]: 98.80% | Toxicity Assay Z-score (CTB cell viability) (Clone V cells): 1.21 | Luciferase Assay % Lum (full-length luciferase counter-screen) [2]: 110.92% | Luciferase Assay Z-score (full-length luciferase counter-screen) [2]: 1.40 | viability at 16 h, 30 µM (in vitro): 109%

CO[C@H]1C[C@@H]2CC[C@@H](C)[C@@](O)(O2)C(=O)C(=O)N2CCCC[C@H]2C(=O)O[C@H]([C@H](C)C[C@@H]2CC[C@@H](O)[C@H](OC)C2)CC(=O)[C@H](C)/C=C(\C)[C@@H](O)[C@@H](OC)C(=O)[C@H](C)C[C@H](C)/C=C/C=C/C=C/1C [Sirolimus]
Split Luciferase Assay Z-score Set 1 [1]: 1.26 | Split Luciferase Assay % Lum Set 1 [1]: 115.56% | Split Luciferase Assay Z-score Set 2 [1]: 0.41 | Split Luciferase Assay %Lum Set 2 [1]: 105.07% | Split Luciferase Assay %Lum Avg [1]: 110.32% | Toxicity Assay Z-score (CTB cell viability) (Clone V cells): 0.38 | Luciferase Assay % Lum (full-length luciferase counter-screen) [2]: 80.58% | Luciferase Assay Z-score (full-length luciferase counter-screen) [2]: -2.49 | viability at 16 h, 30 µM (in vitro): 103%

CCCCCCCCc1ccc(CCC(N)(CO)CO)cc1 [Fingolimod]
Split Luciferase Assay Z-score Set 1 [1]: -0.06 | Split Luciferase Assay % Lum Set 1 [1]: 99.25% | Split Luciferase Assay Z-score Set 2 [1]: 0.58 | Split Luciferase Assay %Lum Set 2 [1]: 107.15% | Split Luciferase Assay %Lum Avg [1]: 103.20% | Toxicity Assay Z-score (CTB cell viability) (Clone V cells): 1.42 | Luciferase Assay % Lum (full-length luciferase counter-screen) [2]: 94.97% | Luciferase Assay Z-score (full-length luciferase counter-screen) [2]: -0.64 | viability at 16 h, 30 µM (in vitro): 110%
